Source: publication PMC2956480, “A bivalent glycopeptide to target two putative carbohydrate binding sites on FimH” (Beilstein Journal of Organic Chemistry, 2010)
Where two headings read alike, the source gives them in different places. Marks after values point to notes of the source that are not given here.

Columns and labels:
[1] = test system: type 1 fimbriated E. coli (HB101pPKL4); FimH-mediated binding to mannan; assay: ELISA, inhibition of mannose-specific type 1 fimbriated E. coli adhesion to mannan-coated microtiter plates; format: cell-based
Description: The synthesis of the bivalent glycopeptide 1 was not optimized in order to improve all the individual yields, because it has been the primary goal of this study to test the anti-adhesive properties of this type of ligand. An ELISA was performed as reported earlier, employing type 1 fimbriated E. coli bacteria and mannan-coated microtiter plates. In this assay a mannosidic ligand competes with the polysaccharide mannan adsorbed on a polystyrene microtiter plate for FimH-mediated binding to the type 1 fimbriated bacteria. The inhibitory ligand is employed in serial dilutions. This leads to inhibition curves, from which IC50-values can be deduced. The IC50-values reﬂect the inhibitor concentration that causes 50% inhibition of bacterial binding to mannan. […] Here, RIPs were based on the IC50-value determined for MeMan on the same plate, which was defined as IP ≡ 1. […]
An ELISA protocol was used to determine the IC50-value of the bivalent target glycopeptide 1 in comparison with monovalent reference ligands, employing mannan-coated microtiter plates and type 1 fimbriated E. coli (HB101pPKL4) as described earlier Optical densities (ODs) were measured on an AMP 400 COM ELISA reader at 405 nm (reference wavelength 492 nm). The percentage inhibition was calculated as {[OD(nI)-OD(I)] × 100 × [OD(nI)]^−1} (nI: no inhibitor, I: with inhibitor). […]

[2] = test system: type 1 fimbriated E. coli (HB101pPKL4); FimH-mediated binding to mannan; settings: relative to MeMan, IP(MeMan) ≡ 1; ELISA, as reported earlier; ref 34 (DubberMSperlingOLindhorstT KOrg Biomol Chem2006439013912); cited from earlier work
From the text: Table 1 Inhibitory potencies in mannose-specific E. coli adhesion of the bivalent glycopeptide 1 in comparison with reference ligands, as determined by ELISA. IC50-values are average values from three independent assays. S: standard deviation; RIP: relative inhibitory potency based on methyl α-D-mannopyranoside (MeMan) with IP(MeMan) ≡ 1.

Row | Structure (SMILES) | IC50 ([1]; mannan from Saccharomyces cerversiae coated (1 mg × ml^−1, 50 mM aq Na2CO3, pH 9.6), type 1 fimbriated E. coli (HB101pPKL4), OD at 405 nm (reference 492 nm), inhibitor in serial dilutions, sigmoidal fit, average values from three independent assays, S (in parentheses): standard deviation, read-out: IC50 (inhibitor concentration that causes 50% inhibition of bacterial binding to mannan)) | RIP (relative inhibitory potency) ([1]; relative to IC50 of MeMan on the same plate, IP(MeMan) ≡ 1, type 1 fimbriated E. coli on mannan) | RIP (relative inhibitory potency) [2]
1 | CO[C@H]1O[C@H](CO)[C@@H](O)[C@H](O)[C@@H]1O [MeMan, methyl α-D-mannopyranoside] | 2900 µM | 1 | –
2 | C=CCO[C@H]1O[C@H](CO)[C@@H](O)[C@H](O[C@H]2O[C@H](CO)[C@@H](O)[C@H](O)[C@@H]2O)[C@@H]1O [allyl Man(1,3)Man, allyl 3-O-α-D-mannosyl-α-D-mannoside] | – | – | 7^a
3 | C=CCO[C@H]1O[C@H](CO[C@H]2O[C@H](CO)[C@@H](O)[C@H](O)[C@@H]2O)[C@@H](O)[C@H](O[C@H]2O[C@H](CO)[C@@H](O)[C@H](O)[C@@H]2O)[C@@H]1O [allyl Man(1,3)[Man(1,6)]Man, allyl 3,6-di-O-(α-D-mannosyl)-α-D-mannoside] | – | – | 20^a
4 | C=CCO[C@H]1O[C@H](CO[C@H]2O[C@H](CO)[C@@H](O)[C@H](O)[C@@H]2O)[C@@H](O)[C@H](O)[C@@H]1O [allyl Man(1,6)Man, allyl 6-O-α-D-mannosyl-α-D-mannoside] | – | – | 0.5^a
